{"source": "ChEMBL document CHEMBL1201862", "about": "“PubChem BioAssay data set” (2004)", "assay_in_all_cases": "growth of human tumour cells (NCI), 48 h", "key": {"786-0": {"tested_on": "786-0"}, "A549": {"tested_on": "A549"}, "ACHN": {"tested_on": "ACHN"}, "BT-549": {"tested_on": "BT-549"}, "CAKI-1": {"tested_on": "CAKI-1"}, "CCRF-CEM": {"tested_on": "CCRF-CEM"}, "COLO 205": {"tested_on": "COLO 205"}, "DU-145": {"tested_on": "DU-145"}, "EKVX": {"tested_on": "EKVX"}, "HCC 2998": {"tested_on": "HCC 2998"}, "HCT-116": {"tested_on": "HCT-116"}, "HCT-15": {"tested_on": "HCT-15"}, "HL-60": {"tested_on": "HL-60"}, "HOP-62": {"tested_on": "HOP-62"}, "HOP-92": {"tested_on": "HOP-92"}, "HT-29": {"tested_on": "HT-29"}, "Hs-578T": {"tested_on": "Hs-578T"}, "IGROV-1": {"tested_on": "IGROV-1"}, "K562": {"tested_on": "K562"}, "KM12": {"tested_on": "KM12"}, "LOX IMVI": {"tested_on": "LOX IMVI"}, "M14": {"tested_on": "M14"}, "MCF7": {"tested_on": "MCF7"}, "MDA-MB-231": {"tested_on": "MDA-MB-231"}, "MDA-MB-435": {"tested_on": "MDA-MB-435"}, "MDA-N": {"tested_on": "MDA-N"}, "MOLT-4": {"tested_on": "MOLT-4"}, "Malme-3M": {"tested_on": "Malme-3M"}, "NCI-H226": {"tested_on": "NCI-H226"}, "NCI-H23": {"tested_on": "NCI-H23"}, "NCI-H522": {"tested_on": "NCI-H522"}, "NCI/ADR-RES": {"tested_on": "NCI/ADR-RES"}, "OVCAR-3": {"tested_on": "OVCAR-3"}, "OVCAR-4": {"tested_on": "OVCAR-4"}, "OVCAR-5": {"tested_on": "OVCAR-5"}, "OVCAR-8": {"tested_on": "OVCAR-8"}, "PC-3": {"tested_on": "PC-3"}, "RPMI-8226": {"tested_on": "RPMI-8226"}, "RXF 393": {"tested_on": "RXF 393"}, "SF-268": {"tested_on": "SF-268"}, "SF-295": {"tested_on": "SF-295"}, "SF-539": {"tested_on": "SF-539"}, "SK-MEL-28": {"tested_on": "SK-MEL-28"}, "SK-MEL-2": {"tested_on": "SK-MEL-2"}, "SK-MEL-5": {"tested_on": "SK-MEL-5"}, "SK-OV-3": {"tested_on": "SK-OV-3"}, "SN12C": {"tested_on": "SN12C"}, "SNB-19": {"tested_on": "SNB-19"}, "SNB-75": {"tested_on": "SNB-75"}, "SR": {"tested_on": "SR"}, "SW-620": {"tested_on": "SW-620"}, "T47D": {"tested_on": "T47D"}, "TK-10": {"tested_on": "TK-10"}, "U-251": {"tested_on": "U-251"}, "UACC-257": {"tested_on": "UACC-257"}, "UACC-62": {"tested_on": "UACC-62"}, "UO-31": {"tested_on": "UO-31"}}, "note": "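In this assay, cells in 96-well plates receive the compound at five concentrations for 48 hours. Endpoints are linearly interpolated between the surrounding concentrations. GI50: concentration for 50% inhibition of growth.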 The source made the active and inactive calls. Rule as the data show it: active = GI50 up to about 1.1 µM and inactive = higher.", "data": [{"compound": "CC(C)COP(=O)(OCC(C)C)C(NS(=O)(=O)c1ccccc1)(C(F)(F)F)C(F)(F)F", "values": [{"measurement": "GI50", "setting": "786-0", "result": "7.53 µM (inactive)"}, {"measurement": "GI50", "setting": "A549", "result": "3.82 µM (inactive)"}, {"measurement": "GI50", "setting": "ACHN", "result": "2.99 µM (inactive)"}, {"measurement": "GI50", "setting": "BT-549", "result": "4.03 µM (inactive)"}, {"measurement": "GI50", "setting": "CAKI-1", "result": "5.52 µM (inactive)"}, {"measurement": "GI50", "setting": "CCRF-CEM", "result": "3.36 µM (inactive)"}, {"measurement": "GI50", "setting": "COLO 205", "result": "1.94 µM (inactive)"}, {"measurement": "GI50", "setting": "DU-145", "result": "5.71 µM (inactive)"}, {"measurement": "GI50", "setting": "EKVX", "result": "4.91 µM (inactive)"}, {"measurement": "GI50", "setting": "HCC 2998", "result": "5.13 µM (inactive)"}, {"measurement": "GI50", "setting": "HCT-116", "result": "5.24 µM (inactive)"}, {"measurement": "GI50", "setting": "HCT-15", "result": 3.94, "unit": "µM"}, {"measurement": "GI50", "setting": "HL-60", "result": "1.22 µM (inactive)"}, {"measurement": "GI50", "setting": "HOP-62", "result": "11.3 µM (inactive)"}, {"measurement": "GI50", "setting": "HOP-92", "result": "2.2 µM (inactive)"}, {"measurement": "GI50", "setting": "HT-29", "result": "4.44 µM (inactive)"}, {"measurement": "GI50", "setting": "Hs-578T", "result": "9.33 µM (inactive)"}, {"measurement": "GI50", "setting": "IGROV-1", "result": "4.41 µM (inactive)"}, {"measurement": "GI50", "setting": "K562", "result": "4.8 µM (inactive)"}, {"measurement": "GI50", "setting": "KM12", "result": "3.93 µM (inactive)"}, {"measurement": "GI50", "setting": "LOX IMVI", "result": "3.57 µM (inactive)"}, {"measurement": "GI50", "setting": "M14", "result": "12.8 µM (inactive)"}, {"measurement": "GI50", "setting": "MCF7", "result": "7.57 µM (inactive)"}, {"measurement": "GI50", "setting": "MDA-MB-231", "result": "2.04 µM (inactive)"}, {"measurement": "GI50", "setting": "MDA-MB-435", "result": "4.45 µM (inactive)"}, {"measurement": "GI50", "setting": "MDA-N", "result": "5.51 µM (inactive)"}, {"measurement": "GI50", "setting": "MOLT-4", "result": "1.41 µM (inactive)"}, {"measurement": "GI50", "setting": "Malme-3M", "result": "11.9 µM (inactive)"}, {"measurement": "GI50", "setting": "NCI-H226", "result": "16.9 µM (inactive)"}, {"measurement": "GI50", "setting": "NCI-H23", "result": "3.81 µM (inactive)"}, {"measurement": "GI50", "setting": "NCI-H522", "result": "4.05 µM (inactive)"}, {"measurement": "GI50", "setting": "NCI/ADR-RES", "result": "4.13 µM (inactive)"}, {"measurement": "GI50", "setting": "OVCAR-3", "result": "4.82 µM (inactive)"}, {"measurement": "GI50", "setting": "OVCAR-4", "result": "3.4 µM (inactive)"}, {"measurement": "GI50", "setting": "OVCAR-5", "result": "14.2 µM (inactive)"}, {"measurement": "GI50", "setting": "OVCAR-8", "result": "6.46 µM (inactive)"}, {"measurement": "GI50", "setting": "PC-3", "result": "3.68 µM (inactive)"}, {"measurement": "GI50", "setting": "RPMI-8226", "result": "1.66 µM (inactive)"}, {"measurement": "GI50", "setting": "RXF 393", "result": "3.96 µM (inactive)"}, {"measurement": "GI50", "setting": "SF-268", "result": "7.21 µM (inactive)"}, {"measurement": "GI50", "setting": "SF-295", "result": "5.6 µM (inactive)"}, {"measurement": "GI50", "setting": "SF-539", "result": "8.34 µM (inactive)"}, {"measurement": "GI50", "setting": "SK-MEL-28", "result": "13.6 µM (inactive)"}, {"measurement": "GI50", "setting": "SK-MEL-2", "result": "3.4 µM (inactive)"}, {"measurement": "GI50", "setting": "SK-MEL-5", "result": "5.12 µM (inactive)"}, {"measurement": "GI50", "setting": "SK-OV-3", "result": "5.47 µM (inactive)"}, {"measurement": "GI50", "setting": "SN12C", "result": "3.22 µM (inactive)"}, {"measurement": "GI50", "setting": "SNB-19", "result": "10.2 µM (inactive)"}, {"measurement": "GI50", "setting": "SNB-75", "result": "2.91 µM (inactive)"}, {"measurement": "GI50", "setting": "SR", "result": "2.08 µM (inactive)"}, {"measurement": "GI50", "setting": "SW-620", "result": "4.15 µM (inactive)"}, {"measurement": "GI50", "setting": "T47D", "result": "3.38 µM (inactive)"}, {"measurement": "GI50", "setting": "TK-10", "result": "3.68 µM (inactive)"}, {"measurement": "GI50", "setting": "U-251", "result": "3.77 µM (inactive)"}, {"measurement": "GI50", "setting": "UACC-257", "result": "4.24 µM (inactive)"}, {"measurement": "GI50", "setting": "UACC-62", "result": "4.81 µM (inactive)"}, {"measurement": "GI50", "setting": "UO-31", "result": "2.22 µM (inactive)"}]}]}
